Laboratory results published in patent US20250296959A1, “B7-H3 TARGETING PEPTIDES AND CONSTRUCTS THEREOF” (Mariana Oncology Inc., priority 2024, published 2025).
Starred links: 1 amine or outer side, 2 acyl side, 3 side chain; linkers in the order of their positions; H or OH if unused. Positions of bridges follow the written chain, without caps; N, C: chain ends. Non-standard residues stand in square brackets, D forms with d. Residues, ends and D or L forms follow the SMILES beside them. Groups on a side chain read outwards from the residue. *: point of attachment. Ala(piperidin-4-yl) = O=C([C@H](CC1CCN([*:3])CC1)N[*:1])[*:2]; DOTA = O=C(O)CN1CCN(CC(=O)O)CCN(CC(=O)*)CCN(CC(=O)O)CC1; Phe(4-NHCONH2) = NC(=O)Nc1ccc(C[C@H](N)C(=O)O)cc1; Trp(4-OMe) = COc1cccc2[nH]cc(C[C@H](N)C(=O)O)c12; Trp(5-F) = N[C@@H](Cc1c[nH]c2ccc(F)cc12)C(=O)O; X1 = C[C@@H](c1ccccc1)[C@H](N[*:1])C(=O)[*:2]; Ala(4-THP) = N[C@@H](CC1CCOCC1)C(=O)O; Val(3-OH) = CC(C)(O)[C@H](N)C(=O)O; pGlu = O=C1CC[C@@H](C(=O)O)N1; PEG4 = NCCOCCOCCOCCOCCC(=O)O; Tle = CC(C)(C)[C@H](N)C(=O)O; hLeu = CC(C)CC[C@H](N)C(=O)O

What follows are compounds tested against T1, human 4lg B7-H3 (Homo sapiens, UniProt Q5ZPR3) (assay: Affinity determination by surface plasmon resonance (SPR) to 4Ig B7-H3). Conditions: SPR KD—37° C., 4Ig B7-H3; 37° C. flow cell temperature.
T1 sequence (Q5ZPR3 29-534): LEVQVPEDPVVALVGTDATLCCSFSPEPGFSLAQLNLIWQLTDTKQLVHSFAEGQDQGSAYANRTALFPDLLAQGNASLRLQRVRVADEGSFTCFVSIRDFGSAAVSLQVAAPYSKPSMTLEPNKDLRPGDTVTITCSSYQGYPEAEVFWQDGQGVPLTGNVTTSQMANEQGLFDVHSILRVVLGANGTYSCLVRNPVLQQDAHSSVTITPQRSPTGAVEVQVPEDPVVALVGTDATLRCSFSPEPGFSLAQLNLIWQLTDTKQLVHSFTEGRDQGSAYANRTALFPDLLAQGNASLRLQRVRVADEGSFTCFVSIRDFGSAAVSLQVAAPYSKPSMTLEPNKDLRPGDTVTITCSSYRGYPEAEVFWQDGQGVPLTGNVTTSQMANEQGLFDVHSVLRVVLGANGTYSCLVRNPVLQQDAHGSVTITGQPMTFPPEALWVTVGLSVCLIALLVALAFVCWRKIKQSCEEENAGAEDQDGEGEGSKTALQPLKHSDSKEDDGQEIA

| Compound | Kd |
| --- | --- |
| COc1cccc2[nH]cc(C[C@H](NC(=O)[C@@H]3CSSC[C@H](NC(=O)[C@H](Cc4ccc(O)cc4)NC(=O)[C@H](CCC(C)C)NC(C)=O)C(=O)N[C@@H](C(C)(C)C)C(=O)NCC(=O)N[C@@H](CC4CCNCC4)C(=O)N[C@@H](CC4CCOCC4)C(=O)N[C@@H](CC(=O)O)C(=O)N[C@@H](C(C)C)C(=O)N[C@@H](Cc4ccc(O)cc4)C(=O)N3)C(=O)N[C@@H](Cc3ccccc3)C(=O)N[C@H](C(=O)N[C@H](CCCCNC(=O)CN3CCN(CC(=O)O)CCN(CC(=O)O)CCN(CC(=O)O)CC3)C(=O)O)C(C)(C)O)c12 [compound 493, Ac-hLeu-Y-C-Tbg-G-PipAla-ThpA-D-V-Y-C-4MeOW-F-hydroxyVal-dLys(DOTA)-COOH] (Ac-[hLeu]YC[Tle]G[Ala(piperidin-4-yl)][Ala(4-THP)]DVYC[Trp(4-OMe)]F[Val(3-OH)][dK](DOTA)-OH; disulfide 3-11) | 1 to 10 nM |
| CC(=O)N[C@@H](CCC(C)C)C(=O)N[C@@H](Cc1ccc(O)cc1)C(=O)N[C@H]1CSSC[C@@H](C(=O)N[C@@H](Cc2c[nH]c3ccc(F)cc23)C(=O)N[C@H](C(=O)N[C@H](C(=O)N[C@H](CCCCNC(=O)[C@H](CCC(=O)O)NC(=O)CN2CCN(CC(=O)O)CCN(CC(=O)O)CCN(CC(=O)O)CC2)C(=O)O)C(C)(C)O)[C@@H](C)c2ccccc2)NC(=O)[C@H](Cc2ccc(O)cc2)NC(=O)[C@H](C(C)C)NC(=O)[C@H](CC(=O)O)NC(=O)[C@H](CC2CCOCC2)NC(=O)[C@H](CC2CCNCC2)NC(=O)CNC(=O)[C@H](C(C)(C)C)NC1=O [compound 498, Ac-hLeu-Y-C-Tbg-G-PipAla-ThpA-D-V-Y-C-5FW-[(2S, 3S)beta-Me-Phe]-hydroxyVal-dLys(Glu-DOTA)-COOH] (Ac-[hLeu]YC[Tle]G[Ala(piperidin-4-yl)][Ala(4-THP)]DVYC[Trp(5-F)][X1][Val(3-OH)][dK]([Glu-DOTA])-OH; disulfide 3-11) | < 1 nM |
| CC(=O)N[C@@H](CCC(C)C)C(=O)N[C@@H](Cc1ccc(O)cc1)C(=O)N[C@H]1CSSC[C@@H](C(=O)N[C@@H](Cc2c[nH]c3ccc(F)cc23)C(=O)N[C@H](C(=O)N[C@H](C(=O)N[C@H](CCCCNC(=O)CCOCCOCCOCCOCCNC(=O)CN2CCN(CC(=O)O)CCN(CC(=O)O)CCN(CC(=O)O)CC2)C(=O)O)C(C)(C)O)[C@@H](C)c2ccccc2)NC(=O)[C@H](Cc2ccc(NC(N)=O)cc2)NC(=O)[C@H](C(C)C)NC(=O)[C@H](CC(=O)O)NC(=O)[C@H](CC2CCOCC2)NC(=O)[C@H](CC2CCNCC2)NC(=O)CNC(=O)[C@H](C(C)(C)C)NC1=O [compound 500, Ac-hLeu-Y-C-Tbg-G-PipAla-ThpA-D-V-Aph(Cbm)-C-5FW-[(2S, 3S)beta-Me-Phe]-hydroxyVal-dLys(PEG4-DOTA)-COOH] (Ac-[hLeu]YC[Tle]G[Ala(piperidin-4-yl)][Ala(4-THP)]DV[Phe(4-NHCONH2)]C[Trp(5-F)][X1][Val(3-OH)][dK]([PEG4-DOTA])-OH; disulfide 3-11) | < 1 nM |
| CC(=O)N[C@@H](CCC(C)C)C(=O)N[C@@H](Cc1ccc(O)cc1)C(=O)N[C@H]1CSSC[C@@H](C(=O)N[C@@H](Cc2c[nH]c3ccc(F)cc23)C(=O)N[C@H](C(=O)N[C@H](C(=O)N[C@H](CCCCNC(=O)CN2CCN(CC(=O)O)CCN(CC(=O)O)CCN(CC(=O)O)CC2)C(N)=O)C(C)(C)O)[C@@H](C)c2ccccc2)NC(=O)[C@H](Cc2ccc(O)cc2)NC(=O)[C@H](C(C)C)NC(=O)[C@H](CC(=O)O)NC(=O)[C@H](CC2CCOCC2)NC(=O)[C@H](CC2CCNCC2)NC(=O)CNC(=O)[C@H](C(C)(C)C)NC1=O [compound 502, Ac-hLeu-Y-C-Tbg-G-PipAla-ThpA-D-V-Y-C-5FW-[(2S, 3S)beta-Me-Phe]-hydroxyVal-dLys(DOTA)-CONH2] (Ac-[hLeu]YC[Tle]G[Ala(piperidin-4-yl)][Ala(4-THP)]DVYC[Trp(5-F)][X1][Val(3-OH)][dK](DOTA)-NH2; disulfide 3-11) | < 1 nM |
| CC(=O)N[C@@H](CCC(C)C)C(=O)N[C@@H](Cc1ccc(O)cc1)C(=O)N[C@H]1CSSC[C@@H](C(=O)N[C@@H](Cc2c[nH]c3ccc(F)cc23)C(=O)N[C@H](C(=O)N[C@H](C(=O)N[C@H](CCCCNC(=O)[C@H](CCC(=O)O)NC(=O)CN2CCN(CC(=O)O)CCN(CC(=O)O)CCN(CC(=O)O)CC2)C(=O)O)C(C)(C)O)[C@@H](C)c2ccccc2)NC(=O)[C@H](Cc2ccc(NC(N)=O)cc2)NC(=O)[C@H](C(C)C)NC(=O)[C@H](CC(=O)O)NC(=O)[C@H](CC2CCOCC2)NC(=O)[C@H](CC2CCNCC2)NC(=O)CNC(=O)[C@H](C(C)(C)C)NC1=O [compound 503, Ac-hLeu-Y-C-Tbg-G-PipAla-ThpA-D-V-Aph(Cbm)-C-5FW-[(2S, 3S)beta-Me-Phe]-hydroxyVal-dLys(Glu-DOTA)-COOH] (Ac-[hLeu]YC[Tle]G[Ala(piperidin-4-yl)][Ala(4-THP)]DV[Phe(4-NHCONH2)]C[Trp(5-F)][X1][Val(3-OH)][dK]([Glu-DOTA])-OH; disulfide 3-11) | < 1 nM |
| CC(C)CC[C@H](NC(=O)[C@@H]1CCC(=O)N1)C(=O)N[C@@H](Cc1ccc(O)cc1)C(=O)N[C@H]1CSSC[C@@H](C(=O)N[C@@H](Cc2c[nH]c3ccc(F)cc23)C(=O)N[C@H](C(=O)N[C@H](C(=O)N[C@H](CCCCNC(=O)CN2CCN(CC(=O)O)CCN(CC(=O)O)CCN(CC(=O)O)CC2)C(=O)O)C(C)(C)O)[C@@H](C)c2ccccc2)NC(=O)[C@H](Cc2ccc(NC(N)=O)cc2)NC(=O)[C@H](C(C)C)NC(=O)[C@H](CC(=O)O)NC(=O)[C@H](CC2CCOCC2)NC(=O)[C@H](CC2CCNCC2)NC(=O)CNC(=O)[C@H](C(C)(C)C)NC1=O [compound 504, Pyroglutamate-hLeu-Y-C-Tbg-G-PipAla-ThpA-D-V-Aph(Cbm)-C-5FW-[(2S, 3S)beta-Me-Phe]-hydroxyVal-dLys(DOTA)-COOH] ([pGlu][hLeu]YC[Tle]G[Ala(piperidin-4-yl)][Ala(4-THP)]DV[Phe(4-NHCONH2)]C[Trp(5-F)][X1][Val(3-OH)][dK](DOTA)-OH; disulfide 4-12) | < 1 nM |
| CC(C)CC[C@H](NC(=O)[C@@H]1CCC(=O)N1)C(=O)N[C@@H](Cc1ccc(O)cc1)C(=O)N[C@H]1CSSC[C@@H](C(=O)N[C@@H](Cc2c[nH]c3ccc(F)cc23)C(=O)N[C@H](C(=O)N[C@H](C(=O)N[C@H](CCCCNC(=O)[C@H](CCC(=O)O)NC(=O)CN2CCN(CC(=O)O)CCN(CC(=O)O)CCN(CC(=O)O)CC2)C(=O)O)C(C)(C)O)[C@@H](C)c2ccccc2)NC(=O)[C@H](Cc2ccc(NC(N)=O)cc2)NC(=O)[C@H](C(C)C)NC(=O)[C@H](CC(=O)O)NC(=O)[C@H](CC2CCOCC2)NC(=O)[C@H](CC2CCNCC2)NC(=O)CNC(=O)[C@H](C(C)(C)C)NC1=O [compound 505, Pyroglutamate-hLeu-Y-C-Tbg-G-PipAla-ThpA-D-V-Aph(Cbm)-C-5FW-[(2S, 3S)beta-Me-Phe]-hydroxyVal-dLys(Glu-DOTA)-COOH] ([pGlu][hLeu]YC[Tle]G[Ala(piperidin-4-yl)][Ala(4-THP)]DV[Phe(4-NHCONH2)]C[Trp(5-F)][X1][Val(3-OH)][dK]([Glu-DOTA])-OH; disulfide 4-12) | < 1 nM |
| CC(=O)N[C@@H](CCC(C)C)C(=O)N[C@@H](Cc1ccc(O)cc1)C(=O)N[C@H]1CSSC[C@@H](C(=O)N[C@@H](Cc2c[nH]c3ccc(F)cc23)C(=O)N[C@H](C(=O)N[C@H](C(=O)N[C@H](CCCCNC(=O)CN2CCN(CC(=O)O)CCN(CC(=O)O)CCN(CC(=O)O)CC2)C(=O)O)C(C)(C)O)[C@@H](C)c2ccccc2)NC(=O)[C@H](Cc2ccc(NC(N)=O)cc2)NC(=O)[C@H](C(C)C)NC(=O)[C@H](CC(=O)O)NC(=O)[C@H](CC2CCOCC2)NC(=O)[C@H](CC2CCNCC2)NC(=O)CNC(=O)[C@H](C(C)(C)C)NC1=O [compound 506, Ac-hLeu-Y-C-Tbg-G-PipAla-ThpA-D-V-Aph(Cbm)-C-5FW-[(2S, 3S)beta-Me-Phe]-hydroxyVal-dLys(DOTA)-COOH] (Ac-[hLeu]YC[Tle]G[Ala(piperidin-4-yl)][Ala(4-THP)]DV[Phe(4-NHCONH2)]C[Trp(5-F)][X1][Val(3-OH)][dK](DOTA)-OH; disulfide 3-11) | < 1 nM |
| CC(C)CC[C@H](NC(=O)[C@@H]1CCC(=O)N1)C(=O)N[C@@H](Cc1ccc(O)cc1)C(=O)N[C@H]1CSSC[C@@H](C(=O)N[C@@H](Cc2c[nH]c3ccc(F)cc23)C(=O)N[C@H](C(=O)N[C@H](C(=O)N[C@H](CCCCNC(=O)CN2CCN(CC(=O)O)CCN(CC(=O)O)CCN(CC(=O)O)CC2)C(=O)O)C(C)(C)O)[C@@H](C)c2ccccc2)NC(=O)[C@H](Cc2ccc(O)cc2)NC(=O)[C@H](C(C)C)NC(=O)[C@H](CC(=O)O)NC(=O)[C@H](CC2CCOCC2)NC(=O)[C@H](CC2CCNCC2)NC(=O)CNC(=O)[C@H](C(C)(C)C)NC1=O [compound 507, Pyroglutamate-hLeu-Y-C-Tbg-G-PipAla-ThpA-D-V-Y-C-5FW-[(2S, 3S)beta-Me-Phe]-hydroxyVal-dLys(DOTA)-COOH] ([pGlu][hLeu]YC[Tle]G[Ala(piperidin-4-yl)][Ala(4-THP)]DVYC[Trp(5-F)][X1][Val(3-OH)][dK](DOTA)-OH; disulfide 4-12) | < 1 nM |
